Legend:
[1] = 101.33 kPa, Liquid, Alternating current cell with electrodes
[2] = xn = mol fraction of the nth substance listed; conditions: Liquid, Alternating current cell with electrodes

CCOS(=O)(=O)[O-].CCn1cc[n+](C)c1 [1-ethyl-3-methylimidazolium ethyl sulfate]
[1]
Conditions | electrical conductivity [S/m]
258.1 K | 0.0286
263.1 K | 0.0374
268.1 K | 0.0495
273.1 K | 0.0727
278.1 K | 0.105
283.1 K | 0.139
288.1 K | 0.202
293.1 K | 0.291
298.1 K | 0.382
303.1 K | 0.485
308.1 K | 0.606
313.1 K | 0.724
318.1 K | 0.861
323.1 K | 1.01
328.1 K | 1.18
333.1 K | 1.35
338.1 K | 1.54
343.1 K | 1.75
348.1 K | 1.95
353.1 K | 2.18
358.1 K | 2.41
363.1 K | 2.68
368.1 K | 3
373.1 K | 3.29
378.1 K | 3.57
383.1 K | 3.86
388.1 K | 4.15
393.1 K | 4.47
398.1 K | 4.77
403.1 K | 5.09
408.1 K | 5.39
413.1 K | 5.68
418.1 K | 6
423.1 K | 6.29
428.1 K | 6.58
433.1 K | 6.86

CCn1cc[n+](C)c1.F[B-](F)(F)F [1-ethyl-3-methylimidazolium tetrafluoroborate]
[1]
Conditions | electrical conductivity [S/m]
258.1 K | 0.245
263.1 K | 0.296
268.1 K | 0.445
273.1 K | 0.612
278.1 K | 0.735
283.1 K | 0.896
288.1 K | 1.09
293.1 K | 1.3
298.1 K | 1.57
303.1 K | 1.79
308.1 K | 2.02
313.1 K | 2.28
318.1 K | 2.55
323.1 K | 2.85
328.1 K | 3.22
333.1 K | 3.56
338.1 K | 3.95
343.1 K | 4.35
348.1 K | 4.77
353.1 K | 5.22
358.1 K | 5.55
363.1 K | 5.95
368.1 K | 6.46
373.1 K | 6.9
378.1 K | 7.36
383.1 K | 7.83
388.1 K | 8.32
393.1 K | 8.77
398.1 K | 9.29
403.1 K | 9.79
408.1 K | 10.3
413.1 K | 10.8
418.1 K | 11.3
423.1 K | 11.8
428.1 K | 12.3
433.1 K | 12.7

[Br][Al]([Br])[Br] [aluminum bromide] + CCn1cc[n+](C)c1.[Br-]
electrical conductivity [S/m], [2]
Conditions | x1 = 0.3 | x1 = 0.6
258.1 K | 0.048 | 0.0432
263.1 K | 0.0898 | 0.0717
268.1 K | 0.122 | 0.113
273.1 K | 0.22 | 0.16
278.1 K | 0.284 | 0.226
283.1 K | 0.454 | 0.338
288.1 K | 0.599 | 0.447
293.1 K | 0.784 | 0.645
298.1 K | 0.979 | 0.877
303.1 K | 1.21 | 1.14
308.1 K | 1.49 | 1.42
313.1 K | 1.82 | 1.75
318.1 K | 2.14 | 2.11
323.1 K | 2.54 | 2.56
328.1 K | 3.05 | 3.04
333.1 K | 3.5 | 3.62
338.1 K | 4.05 | 4.22
343.1 K | 4.6 | 4.87
348.1 K | 5.14 | 5.56
353.1 K | 5.79 | 6.35
358.1 K | 6.95 | 7.16
363.1 K | 7.62 | 7.79
368.1 K | 8.28 | 8.57
373.1 K | 8.95 | 9.46
378.1 K | 9.7 | 10.4
383.1 K | 10.6 | 11.4
388.1 K | 11.4 | 12.3
393.1 K | 12 | 12.8
398.1 K | – | 13.7
403.1 K | – | 14.5
408.1 K | – | 15.3
413.1 K | – | 15.8
418.1 K | – | 16.5

[Cl][Al]([Cl])[Cl] [aluminum chloride] + CCn1cc[n+](C)c1.[Cl-]
electrical conductivity [S/m], [2]
Conditions | x1 = 0.33 | x1 = 0.6
253.1 K | 0.0315 | 0.0377
258.1 K | 0.0515 | 0.0517
263.1 K | 0.0855 | 0.1
268.1 K | 0.127 | 0.143
273.1 K | 0.195 | 0.206
278.1 K | 0.3 | 0.283
283.1 K | 0.39 | 0.385
288.1 K | 0.53 | 0.515
293.1 K | 0.705 | 0.669
298.1 K | 0.907 | 0.861
303.1 K | 1.11 | 1.08
308.1 K | 1.37 | 1.32
313.1 K | 1.67 | 1.6
318.1 K | 2.02 | 1.91
323.1 K | 2.4 | 2.26
328.1 K | 2.81 | 2.64
333.1 K | 3.29 | 3.11
338.1 K | 3.8 | 3.56
343.1 K | 4.34 | 4.02
348.1 K | 4.9 | 4.56
353.1 K | 5.68 | 5.08
358.1 K | 6.27 | 5.63
363.1 K | 7.13 | 6.17
368.1 K | 7.95 | 7.28
373.1 K | 8.5 | 8.09
378.1 K | 9.11 | 9.1
383.1 K | 9.97 | 9.72
388.1 K | 10.9 | 10.1
393.1 K | 11.8 | 10.4
398.1 K | 12.3 | –
403.1 K | 12.7 | –
